Results on 5 compounds are retold here after patent US20260008775A1, “AZOLE MODULATORS OF CHOLESTEROL BIOSYNTHESIS AND THEIR USE FOR PROMOTING REMYELINATION” (GENENTECH, INC., priority 2022, published 2026).

For one assay, the system named is EpiSC-derived OPCs. The assay is described as follows: In vitro phenotypic screening of OPCs, MBP high-content imaging (percentage of oligodendrocytes). It is filed as cell-based, mouse. The note with it: for EC50: Mus musculus, 72 h, 3 days, MBP stain, dose-response 0.5 nM to 1000 nM, read-out: OPC EC50. Summed up: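 EC50 was fitted by Hill equation to the MBP-positive oligodendrocyte percentage from imaging of fixed, MBP- and DAPI-stained cells. Treatment lasted 3 days at 37 °C, final doses 0.5–1000 nM over 8 points, in growth factor-free N2B27. Cells were EpiSC-derived OPCs, tested in at least two independent platings.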

In assay [1] the test system is zymostenol accumulation (EBP) in EpiSC-derived OPCs. Briefly: GC/MS-based sterol profiling, zymostenol accumulation in EpiSC-derived OPCs. The note with it: for EC50: Mus musculus, 24 h, EpiSC-derived OPCs, 24 hr, 8 doses from 0.15 nM to 333 nM, read-out: Mouse Zymostenol GCMS EC50. It is filed as cell-based, mouse. The essentials: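 Zymostenol level is expressed relative to that after 24 h with 100 nM positive-control reference, measured by full-scan GC/MS (m/z 458) with cholesterol-d7 internal standard after BSTFA derivatisation. Cells were EpiSC-derived OPCs, 100,000/well in N2B27 without growth factors, treated 24 h, from two or more independent platings.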

For assay [2], the target named is human emopamil binding protein and human 7-dehydrocholesterol reductase (hEBP-DHCR7) (Homo sapiens (Human), UniProt Q15125). The assay is described as follows: hEBP-DHCR7 radioligand binding assay (filter binding, membranes of co-expressing HEK293 cells). The note with it: for Ki: competition with [3H] radioligand, 8 doses 0.06 to 5000 nM, Ki calculated from IC50. Summed up:
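Compound, either single dose 1 μM or eight 5-fold dilutions from 0.06 to 5000 nM, competed with a [3H]-labelled ligand added at 25 nM for binding to co-expressing HEK293 membranes. IC50 came from nonlinear regression, with full block and DMSO as controls, then Cheng–Prusoff conversion to Ki.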

Chain of human emopamil binding protein and human 7-dehydrocholesterol reductase (hEBP-DHCR7) (Q15125 whole entry): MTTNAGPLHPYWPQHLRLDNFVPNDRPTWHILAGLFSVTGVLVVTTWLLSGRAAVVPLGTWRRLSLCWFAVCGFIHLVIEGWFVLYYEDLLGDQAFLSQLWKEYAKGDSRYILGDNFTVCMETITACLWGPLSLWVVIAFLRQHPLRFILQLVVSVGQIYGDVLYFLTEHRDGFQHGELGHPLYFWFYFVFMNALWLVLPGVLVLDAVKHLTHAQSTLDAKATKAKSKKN

As a reminder, the EC50 is the concentration that produces a half-maximal response. What is called Ki is the equilibrium dissociation constant of an inhibitor or competing ligand from its target. In the case of `CC(C)n1nc(-c2cccc(F)c2)cc1[C@H]1[C@@H]2C[C@H](N3CCCOCC3)C[C@@H]21` [Compound 195*, 4-((1R,3r,5S,6r)-6-(3-(3-Fluorophenyl)-1-isopropyl-1H-pyrazol-5-yl)bicyclo[3.1.0]hexan-3-yl)-1,4-oxazepane], the EC50 in the assay with EpiSC-derived OPCs was found to be 0.00749 µM; in assay [1] it was 0.00242 µM. Further, the Ki in assay [2] was 0.0127 µM.

As for `CC(C)n1nc(-c2cccc(F)c2)cc1[C@H]1[C@@H]2C[C@@H](N3CCCOCC3)C[C@@H]21` [Compound 196*, 4-((1R,3s,5S,6r)-6-(3-(3-fluorophenyl)-1-isopropyl-1H-pyrazol-5-yl)bicyclo[3.1.0]hexan-3-yl)-1,4-oxazepane], the EC50 in the assay with EpiSC-derived OPCs is 0.0462 µM; in assay [1] it was 0.0133 µM. The inhibition constant (Ki) in assay [2] is 0.0127 µM.

Regarding `CC(C)n1nc(-c2cnc(C(F)(F)F)nc2)cc1[C@H]1[C@@H]2C[C@H](N3CCOCC3)C[C@@H]21` [Compound 203, 4-((1R,3r,5S,6r)-6-(1-isopropyl-3-(2-(trifluoromethyl)pyrimidin-5-yl)-1H-pyrazol-5-yl)bicyclo[3.1.0]hexan-3-yl)morpholine], the half-maximal effective concentration (EC50) turned out to be 0.0973 µM in the assay with EpiSC-derived OPCs and 0.0214 µM in assay [1]. Further, the Ki in assay [2] is 0.0275 µM.

With `CC(C)n1nc(-c2cnc(C(F)(F)F)nc2)nc1[C@H]1[C@@H]2C[C@H](N3CCOC[C@H]3C)C[C@@H]21` [Compound 204, (R)-4-((1R,3r,5S,6r)-6-(1-isopropyl-3-(2-(trifluoromethyl)pyrimidin-5-yl)-1H-1,2,4-triazol-5-yl)bicyclo[3.1.0]hexan-3-yl)-3-methylmorpholine], the EC50 in the assay on EpiSC-derived OPCs is 0.006 µM; in assay [1], 0.00207 µM. In addition, the inhibition constant (Ki) in assay [2] is 0.016 µM.

Consider `CC(C)n1nc(-c2cnc(N)c(C(F)(F)F)c2)cc1[C@H]1[C@@H]2C[C@@H](N3CCOCC3)C[C@@H]21` [Compound A, reference compound], for which the concentration for a half-maximal effect (EC50) is 3 µM in the assay on EpiSC-derived OPCs and 1.4 µM in assay [1]. Further, the “fold decrease in activity in the OPC assay” value in the assay with EpiSC-derived OPCs (as compared to compound 202) worked out at 4.1 fold. Further, the “fold decrease in activity in the mouse zymostenol assay” value in assay [1] (as compared to compound 202) is listed as 5.9 fold. Further, the “fold decrease in EBP inhibition” value in assay [2] (as compared to compound 202 (no amine group on Ring B)) came out at 19.5 fold. In assay [2], the Ki was 3.67 µM.
